In data set [1] the test system is S. aureus. Description: MIC determination. In kind it is cell-based, Staphylococcus aureus.
In data set [2] the test system is Acinetobacter baumannii. Briefly: agar well diffusion antibacterial assay. Particulars: A. baumannii, at the tested concentration. In kind it is cell-based. As for the experimental part:
(§1) The agar well diffusion method was used to evaluate the antibacterial activity of the isolated compounds on antibiotic-resistant, pathogenic bacteria Staphylococcus aureus, Enterococcus faecium, and Acinetobacter baumannii. Three bacterial pathogens were cultured in nutrient broth at 37 °C for 18 h. The cultures were diluted with sterile 0.9% NaCl to obtain bacterial solutions of 1.5 × 10^8 CFU/mL. This solution with a volume of 100 μL was spread on a Mueller–Hinton agar plate. Holes with a diameter of 8 mm were punched aseptically to create wells on the surface of the Mueller–Hinton agar. The compounds were dissolved in DMSO. The amount of 50 µg of each compound solution was inserted into the wells. The plates were incubated at 37 °C for 16–18 h, and the antibacterial activity of each compound was recorded by measuring the diameters of the inhibition zones surrounding the wells. DMSO was used as a control. […] Kanamycin was used as the positive control in this experiment.
(In agar diffusion tests the substance spreads into inoculated agar from a disc or well.)

Data set [3] deals with Enterococcus faecium. Description: agar well diffusion antibacterial assay. In kind it is cell-based. The conditions noted are these: E. faecium, concentration of 50 µg/mL. As for the experimental part:
as §1

Data set [4] has as its system Staphylococcus aureus. Briefly: agar well diffusion antibacterial assay. In kind it is cell-based. The conditions noted are these: S. aureus, concentration of 50 µg/mL. As for the experimental part: as §1
Data set [5] can be described thus: cytotoxicity assay. In kind it is cell-based. Particulars: human, HEK293 cells (normal cell line). From the text:
The cytotoxic evaluation of compound 1 against the HEK293 normal cell line was applied from a previous procedure.

Data set [6] has as its target α-glucosidase. Description: α-glucosidase inhibition assay. In kind it is biochemical, yeast. Particulars: in vitro; read-out: α-glucosidase inhibitory activity IC50. As for the experimental part:
The enzymatic reaction was carried out at 37 °C for 20 min and stopped by adding 0.2 M Na2CO3 (130 μL). Enzymatic activity was quantified by measuring absorbance at 405 nm. All samples were analyzed in triplicate at five different concentrations around the IC50 values, and the mean values were retained.

In data set [7] the test system is S. aureus. The arrangement: method as in PMID 27458464. The conditions noted are these: cited from earlier work.

In brackets after ≈: the same amount, converted by molar mass. Where two headings read alike, the source gives them in different places.

One may read the MIC as the smallest concentration in the dilution series that meets the test's criterion for growth inhibition. For `NC[C@H]1O[C@H](O[C@H]2[C@H](O)[C@@H](O[C@H]3O[C@H](CO)[C@@H](O)[C@H](N)[C@H]3O)[C@H](N)C[C@@H]2N)[C@H](O)[C@@H](O)[C@@H]1O` [kanamycin, reference compound], in data set [1], the MIC is reported as 8.26 µM (≈ 4 µg/mL).
As usually defined, the zone of inhibition is the size of the clear area around the sample on an inoculated plate. High values mean a stronger effect on the plate, low ones a weaker effect on the plate. By IC50 is commonly meant the midpoint of a concentration-inhibition curve. For `CC(C)=CCCC1(C)C(CC=C(C)C)CC23CCC(C)(C)OC2=C(C(=O)c2ccc(O)c(O)c2)C(=O)C1(CC=C(C)C)C3=O` (centres unmarked) [Compound 1, schomburgkianone I], the antimicrobial activity result in data set [2] is on record as “failed to show any activity”. Further, the zone of inhibition at 50 µg/mL in data set [3] was 20 mm; in data set [4] it was 21 mm. Besides, the 50% inhibitory concentration (IC50) in data set [5] was 87 µM; in data set [6], 21.2 µM. Moreover, the MIC in data set [1] (Staphylococcus aureus) stood at 13.3 µM (≈ 8.03 µg/mL).
Guttiferone BL: the “activity against S. aureus” value in data set [7] was “low activity”.

The record behind these values is article PMC9032663, “α-Glucosidase Inhibitory and Antimicrobial Benzoylphloroglucinols from Garcinia schomburgakiana Fruits: In Vitro and In Silico Studies” (Molecules, 2022).
